Test results: patent US8846653B2, “Delta-tocotrienol treatment and prevention of pancreatic cancer” (University of South Florida, priority 2006, dated 2014)

Tests used:
MiaPaCa-2 cells = assay: MTS assay of MiaPaCa2 cultures, single 50 μM dose; assay type: cell-based, human; settings: MiaPaCa2, 50 μM
Protocol: MiaPaCa-2 cells were cultured in complete DMEM media containing 10% fetal bovine serum (FBS) and 1% penicillin-streptomycin, and 1% L-glutamine. BxPc-3 pancreatic cancer cells were cultured in complete RPMI media containing 10% fetal bovine serum (FBS), and 1% penicillin-streptomycin, 1% HEPES buffer, 1% sodium pyruvate and 1% L-glutamine HPDE6-C7 cells were cultured in serum-free keratinocyte SFM media. All cells were maintained at 37° C. in a humidified incubator with 5% CO2. The cells were treated with a single 50 μM dose of vehicle (vehicle only, may be a solvent), T3 alpha (alpha tocotrienol), T3 beta (beta tocotrienol), T3 gamma (gamma tocotrienol), T3 delta (delta tocotrienol), T alpha (alpha tocopherol), T beta (beta tocopherol), TS (tocopherol succinate), GG (geranylgeraniol), SA (succinic acid). A control (no treatment) culture was grown alongside the treatments for comparison. […]

[1] = system: AsPc1 pancreatic cancer cells; assay: Effect of tocotrienols on pancreatic cancer proliferation (MTT), 72 hours; assay type: cell-based, human; settings: AsPc1, 40 to 100 μM, vs vehicle
Description: (§1) FIGS. 11A and B are graphs showing the effect of tocotrienols on pancreatic cancer proliferation (MTT). […] Points, means; bars, SE (n=3).

[2] = system: MiaPaCa2 pancreatic cancer cells; assay: as above; assay type: cell-based, human; settings: MiaPaCa2, 40 to 100 μM, vs vehicle
Description: as §1

[3] = system: MiaPaCa2 pancreatic cancer cells; assay: Malignant transformation (Soft Agar) colony formation; assay type: cell-based, human; settings: MiaPaCa2, 50 μM, vs vehicle
Protocol: FIG. 20 is a graph showing the effect of tocotrienols on pancreatic cancer malignant transformation (Soft Agar). […] Bars, SE (n=3). *p<0.001 vs. vehicle. **p<0.02 vs. vehicle. ***p<0.05 vs. vehicle. T=tocopherol, T3=tocotrienol.
MiaPaCa2 cells (3×10^3) were cultured as described in the Examples above, in 96-well plates and treated with 50 μM of different tocopherol or tocotrienol.

[4] = system: MiaPaCa2 pancreatic cancer cells; assay: Cell death by trypan blue assay, 72 hours; assay type: cell-based, human; settings: MiaPaCa2, 50 μM
Protocol: (§2) FIGS. 38A and B are graphs showing the effect of tocotrienols on pancreatic cancer survival (Trypan Blue and Cell death ELISA). […] T3=tocotrienol, T=tocopherol, vit E=vitamin E succinate, gem=gemcitabine, 5-FU=fluorouracil.
(§3) MIA PaCa2 cells (3×10^3) were plated in 96 well plates and treated the following day with different compositions of tocoperhol, tocotrienol, gemcitabine, or fluorouracil. The cells were harvested 72 hours later and tested using trypan blue assay and cell death ELISA.

[5] = system: MiaPaCa2 pancreatic cancer cells; assay: Apoptosis by cell death ELISA, 72 hours; assay type: cell-based, human; settings: MiaPaCa2, 50 μM
Protocol: as §2, §3

[6] = system: human pancreatic ductal epithelial cells transformed with oncogenic K-ras (HPDE-K-ras); assay: Proliferation (MTT) of K-ras transformed ductal epithelial cells; assay type: cell-based; settings: 72 hours
Protocol: FIGS. 36A and B are graphs showing the effect of tocotrienols on Human Pancreatic Ductal Epithelial Kras Transformed cells (MTT). (A) Tocotrienols (10-100 μM) had no effect on the proliferation of normal immortalized human pancreatic ductal epithelial cells at 72 hours. […] Points, means; bars, SE (n=3). *p<0.001 vs. vehicle. # p<0.02 vs. vehicle
The Ras effector pathways Raf-MEK-ERK and PI3 kinase-AKT are important for cell proliferation and survival, respectively. Pancreatic cancer cell lines (MIA PaCa2, SW1990, BXPC3) and HPDE 6C7 cells were treated with 8-tocotrienol (20 μM) and cell lysates were collected and prepared at progressive time intervals as described above. Proteins from lysates were run by SDS PAGE and immunoblotted with the following antibodies: Ras, p-cRaf (ser 338), p-MEK1/2, MEK1/2, pERK 44/42, ERK 44/42 (Cell Signaling) and c-Raf (BD Transduction Laboratories). […] The MIA PaCa2 and SW1990 cells were then tested for AKT inhibition. The cells were treated with δ-tocotrienol (20 μM) for 24 and 48 hours and cell lysates were run by SDS-PAGE and immunoblotted for p-AKT and AKT (Cell Signaling). […] Taken together, the inhibition of downstream effectors of oncogenic Ras signaling by δ-tocotrienol without an effect on Ras protein levels may indicate a negative regulatory role of 8-tocotrienol on the function of oncogenic Ras. The pancreatic ductal epithelial cell proliferative inhibition by δ-tocotrienol was tested to see if it occurs through blocking aberrant signal transduction cascades. Immortalized human pancreatic ductal epithelial cells (HPDE) and human pancreatic ductal epithelial cells that were transformed by stable transfection of a mutated K-ras oncogene (HPDE-K-ras) were used to test the. effect of tocotrienols on the proliferation of HPDE and HPDE-K-ras.

Compound | rel amt (relative value set to the control) (MiaPaCa-2 cells; 24 hours) | MTS assay result, run 1 (MiaPaCa-2 cells; 24 hours) | MTS assay result, run 2 (MiaPaCa-2 cells; 24 hours) | MTS assay result, run 3 (MiaPaCa-2 cells; 24 hours) | MTS assay result, run 4 (MiaPaCa-2 cells; 24 hours) | MTS assay result, run 5 (MiaPaCa-2 cells; 24 hours) | MTS assay result, run 6 (MiaPaCa-2 cells; 24 hours) | MTS assay result, run 7 (MiaPaCa-2 cells; 24 hours) | MTS assay result, run 8 (MiaPaCa-2 cells; 24 hours) | MTS assay result, run 9 (MiaPaCa-2 cells; 24 hours) | rel amt (relative value set to the control) (MiaPaCa-2 cells; 48 hours) | MTS assay result, run 1 (MiaPaCa-2 cells; 48 hours) | MTS assay result, run 2 (MiaPaCa-2 cells; 48 hours) | MTS assay result, run 3 (MiaPaCa-2 cells; 48 hours) | MTS assay result, run 4 (MiaPaCa-2 cells; 48 hours) | MTS assay result, run 5 (MiaPaCa-2 cells; 48 hours) | MTS assay result, run 6 (MiaPaCa-2 cells; 48 hours) | MTS assay result, run 7 (MiaPaCa-2 cells; 48 hours) | MTS assay result, run 8 (MiaPaCa-2 cells; 48 hours) | MTS assay result, run 9 (MiaPaCa-2 cells; 48 hours) | other results
Cc1c(C)c2c(c(C)c1O)CC[C@@](C)(CCC[C@H](C)CCC[C@H](C)CCCC(C)C)O2 [T alpha, alpha tocopherol] | 111 | 0.249 | 0.25 | 0.253 | 0.207 | 0.253 | 0.238 | 0.27 | 0.254 | 0.247 | 86 | 0.308 | 0.313 | 0.342 | 0.269 | 0.352 | 0.277 | 0.305 | 0.339 | 0.313 | rel amt (relative value set to the control) (MiaPaCa-2 cells; 72 hours): 103; MTS assay result, run 1 (MiaPaCa-2 cells; 72 hours): 0.523; MTS assay result, run 2 (MiaPaCa-2 cells; 72 hours): 0.478; MTS assay result, run 3 (MiaPaCa-2 cells; 72 hours): 0.464; MTS assay result, run 4 (MiaPaCa-2 cells; 72 hours): 0.453; MTS assay result, run 5 (MiaPaCa-2 cells; 72 hours): 0.443; MTS assay result, run 6 (MiaPaCa-2 cells; 72 hours): 0.456; MTS assay result, run 7 (MiaPaCa-2 cells; 72 hours): 0.383; MTS assay result, run 8 (MiaPaCa-2 cells; 72 hours): 0.451; MTS assay result, run 9 (MiaPaCa-2 cells; 72 hours): 0.456; proliferation (MTT) [1]: no effect; proliferation (MTT) [2]: no effect; malignant transformation (Soft Agar) [3]: no effect; cell death (Trypan Blue) [4]: no effect; apoptosis (Cell death ELISA) [5]: no effect
alpha tocotrienol [T3 alpha] | 116 | 0.274 | 0.296 | 0.293 | 0.216 | 0.245 | 0.258 | 0.243 | 0.239 | 0.258 | 93 | 0.336 | 0.325 | 0.343 | 0.327 | 0.39 | 0.376 | 0.322 | 0.286 | 0.338 | rel amt (relative value set to the control) (MiaPaCa-2 cells; 72 hours): 61; MTS assay result, run 1 (MiaPaCa-2 cells; 72 hours): 0.279; MTS assay result, run 2 (MiaPaCa-2 cells; 72 hours): 0.282; MTS assay result, run 3 (MiaPaCa-2 cells; 72 hours): 0.294; MTS assay result, run 4 (MiaPaCa-2 cells; 72 hours): 0.238; MTS assay result, run 5 (MiaPaCa-2 cells; 72 hours): 0.302; MTS assay result, run 6 (MiaPaCa-2 cells; 72 hours): 0.279; MTS assay result, run 7 (MiaPaCa-2 cells; 72 hours): 0.254; MTS assay result, run 8 (MiaPaCa-2 cells; 72 hours): 0.254; MTS assay result, run 9 (MiaPaCa-2 cells; 72 hours): 0.273; proliferation (MTT) [1]: no effect; proliferation (MTT) [2]: no effect; malignant transformation (Soft Agar) [3]: no effect; proliferation (MTT) [6]: no effect; cell death (Trypan Blue) [4]: no effect; apoptosis (Cell death ELISA) [5]: no effect
